Measurements: patent publication US5462744A, “Transdermal system for the administration of pharmacological compounds under pH-controlled conditions” (Boehringer Ingelheim KG, priority 1990, dated 1995)
Values joined by “and” are separate entries in the source; they are usually repeats but may differ in a detail not shown here. Equal values may be shown once. “Also recorded” adds a separate entry of the source.

Legend:
[1] = pH of the skin surface underneath the system after 5 days' wearing, surface pH electrode (FIG. 6); type: in vivo, human; conditions: in the polymethacrylate matrix
From the text: The systems tested differ in their concentration of citric acid in the polymethacrylate matrix. It is clear that only a citric acid concentration of more than 1% can bring about any significant change in the surface pH of the skin. The words "values 1, 2 and 3" in FIG. 7 refer to test subjects.

[2] = transdermal administration, prior practice; cited from earlier work
[3] = Flux rate of clenbuterol through human skin depending on pH (FIG. 9); type: in vitro ADME; conditions: pH range 6.0 to 8.5 versus higher and lower pH
From the text: The flux rate of an active substance through the skin is defined as the quantity of active substance per unit of area of the skin and per unit of time and is normally given in [μg/cm^2.h].
Curve B illustrates the water solubility of the substance depending on the pH value [mg/ml]. […] (The right-hand ordinate in FIG. 9 is shown logarithmically). [μg/cm^2. h]

[4] = Permeability of pH-modified clenbuterol CPA through human skin (Franz cell release apparatus); type: in vitro ADME
Description: Permeability of pH-modified clenbuterol CPA through human skin:
Composition of the CPA's:
Polymethacrylate 90% 90%
A Franz cell was used as the release apparatus. This is a conventional method of testing the release of drugs from pharmaceutical formulations. Samples were taken after 24 hours and 48 hours and the clenbuterol content was determined.

SMILES	citric acid concentration that brings about significant change in the surface pH of the skin [1]	constancy of blood level values [2]	flux rate depending on pH [3]	diffusion rate, alkaline versus acid pH ([4]; pH 10.0 vs pH 3.5)	Clenbuterol Diffusion after 24 hours ([4]; pH-value 10.0 (5% Na2CO3), 24 hours, 5% clenbuterol in polymethacrylate)	Clenbuterol Diffusion after 48 hours ([4]; pH-value 10.0 (5% Na2CO3), 48 hours, 5% clenbuterol in polymethacrylate)
O=C(O)CC(O)(CC(=O)O)C(=O)O [Citric acid, citric acid]	more than 1%					
CC(C)(C)NCC(O)c1cc(Cl)c(N)c(Cl)c1 (stereo not drawn) [Clenbuterol]		has not hitherto resulted in constant blood level values	reaches a maximum in the pH range specified above, but decreases sharply at higher and lower pH levels; also recorded: reduced drastically outside the pH range specified	a higher diffusion rate is found at an alkaline pH than at an acid pH	7.8 μg/cm^2 and 11.44 μg/cm^2 and 9.84 μg/cm^2	21.7 μg/cm^2 and 27.3 μg/cm^2 and 24.2 μg/cm^2
